Molecular target: T1, PYL-MCP and LambdaN-ABI (Arabidopsis thaliana, UniProt Q8VZS8)
T1 construct: expressed in transfected cells; host or cells: HEK293T
Assay: Split-pegRNA recording of abscisic acid (ABA)-induced dimerization of PYL-MCP and LambdaN-ABI
Type: cell-based
Conditions: PYL-ABI pair, abscisic acid added to cell culture
From the text: FIG. 3. Recording protein-protein interaction and small molecule exposure using Split-pegRNA recorders. a-b. Design of Split-pegRNA recorder with protein adaptors to record protein-protein interaction (a) and exposure to small molecule (b). c. Normalized editing efficiency of different pairs of constructs tagged with MCP and LambdaN adaptors. Editing efficiencies are scaled (“normalized”) to positive editing control of CTT insertion to HEK3 locus by epegRNA (“eCTT control”). In MCP-LambdaN condition, a single protein-expression construct with MCP tethered with LambdaN was transfected instead of a pair of protein-expression constructs. […]
In the past 30 years, several chemicals have been identified as critical signaling molecules for promoting protein-protein interactions^8. We reasoned that the exposure of these “molecular glue” small molecules to cells can be recorded into the genome using specifically engineered split-pegRNA recorders. […]
Sequencing reads from Illumina MiSeq™ and NextSeq™ platforms are first demultiplexed using BCL2fastq software (Illumina). […] Editing efficiencies were calculated using pattern-matching software such as Regular Expression (package REGEX) in Python, counting correct amplicon reads with or without intended edits (CTT insertion to HEK3 locus^1).

T1 sequence (Q8VZS8 other isoform, or with tags, fused parts or gaps): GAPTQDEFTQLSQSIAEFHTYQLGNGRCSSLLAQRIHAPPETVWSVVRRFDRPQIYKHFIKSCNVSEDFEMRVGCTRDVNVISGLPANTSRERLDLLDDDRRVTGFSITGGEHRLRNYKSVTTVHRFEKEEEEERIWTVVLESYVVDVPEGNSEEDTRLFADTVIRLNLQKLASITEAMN
T1 sequence (P49597 other isoform, or with tags, fused parts or gaps D143A, further chain): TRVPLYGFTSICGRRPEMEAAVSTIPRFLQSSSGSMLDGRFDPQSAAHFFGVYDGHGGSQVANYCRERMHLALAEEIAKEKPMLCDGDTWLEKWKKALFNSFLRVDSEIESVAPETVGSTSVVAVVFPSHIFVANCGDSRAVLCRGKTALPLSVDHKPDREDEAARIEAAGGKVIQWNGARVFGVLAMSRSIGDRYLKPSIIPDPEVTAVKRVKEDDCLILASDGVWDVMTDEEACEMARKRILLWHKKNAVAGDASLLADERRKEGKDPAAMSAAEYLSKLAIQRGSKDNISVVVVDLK

Structure (SMILES): CC1=CC(=O)CC(C)(C)[C@@]1(O)/C=C/C(C)=C\C(=O)O [Abscisic acid]
- change in editing efficiency on addition of small molecule: strong increase in the editing efficiency

— patent US20260176627A1, “DUAL-RNA-GUIDED, SPLIT-PEGRNA RECORDER FOR MOLECULAR INTERACTION” (University of Washington, priority 2022, published 2026)
